From patent US10874646B2, “Epothilone analogs, methods of synthesis, methods of treatment, and drug conjugates thereof” (WILLIAM MARSH RICE UNIVERSITY, priority 2015, dated 2020)
Like-named read-outs stand apart in the source and are kept apart here.

Key:
tubulin = test: Induction/enhancement of tubulin assembly (Lin, et al., 1996); assay type: biochemical; conditions: 10 μM tubulin, 0.4M monosodium glutamate, 30 min at room temperature
MCF-7 = test: Cytotoxicity, standard NCI assay with sulforhodamine B, 96 h; conditions: for IC50: read-out: Cytotoxicity (nM, ± SD) MCF-7; for GI50: read-out: cytotoxicity (GI50, nM ± SD) MCF-7
MDA-MB-435 = test: as above; assay type: cell-based, human; conditions: read-out: Cytotoxicity (nM, ± SD) MDA-MB-435
OVCAR-8 = test: as above; conditions: for IC50: read-out: Cytotoxicity (nM, ± SD) OVCAR-8; for GI50: read-out: cytotoxicity (GI50, nM ± SD) OVCAR-8
NCI/ADR-RES = test: as above; assay type: cell-based, human; conditions: read-out: Cytotoxicity (nM, ± SD) NCI/ADR-RES
SNB-75 = test: as above; assay type: cell-based, human; conditions: read-out: Cytotoxicity (nM, ± SD) SNB-75
[1] = Table 3, read-out: Enhancement of tubulin assembly (EC50)
[2] = Homo sapiens, NCI/ADR-RES, 96 h
[3] = Table 2, read-out: induction of tubulin assembly (EC50, μM ± SD)
[4] = MCF-7, IC50, 96 h at 37° C., Table 3
[5] = MDA-MB-435, IC50, 96 h at 37° C., Table 3
[6] = OVCAR-8, IC50, 96 h at 37° C., Table 3
[7] = OVCAR-8, 96 h at 37° C., Table 2
[8] = NCI/ADR-RES (overexpresses P-glycoprotein), IC50, 96 h at 37° C., Table 3
[9] = SNB-75, IC50, 96 h at 37° C., Table 3

Compound	EC50 (tubulin; [1]) [µM]	IC50 (MCF-7; Homo sapiens, MCF7, 96 h) [nM]	IC50 (MDA-MB-435; Homo sapiens, MDA-MB-435, 96 h) [nM]	IC50 (OVCAR-8; Homo sapiens, OVCAR-8, 96 h) [nM]	IC50 (NCI/ADR-RES; [2]) [nM]	IC50 (SNB-75; Homo sapiens, SNB-75, 96 h) [nM]	EC50 (tubulin; [3]) [µM]	GI50 (MCF-7; MCF-7, 96 h at 37° C., Table 2) [nM]	GI50 (OVCAR-8; [7]) [nM]	also measured
CSc1nc(/C=C(\C)[C@@H]2C[C@@H]3N(CCN=[N+]=[N-])[C@]3(C)CCC[C@H](C)[C@H](O)[C@@H](C)C(=O)C(C)(C)[C@@H](O)CC(=O)O2)cs1 (some centres unmarked) [Compound 80]	5.4 ± 0.6	13 ± 3	7.3 ± 2	15	3.2 ± 0.8	22 ± 3				
CSc1nc(/C=C(\C)[C@@H]2C[C@@H]3N(CC4CC4)[C@]3(C)CCC[C@H](C)[C@H](O)[C@@H](C)C(=O)C(C)(C)[C@@H](O)CC(=O)O2)cs1 (some centres unmarked) [Compound 81]	5.1 ± 0.4	18 ± 3	9.5 ± 2	15 ± 2	18 ± 4	16 ± 3				
CSc1cc(/C=C(\C)[C@@H]2C[C@@H]3N(CCO)[C@]3(C)CCC[C@H](C)[C@H](O)[C@@H](C)C(=O)C(C)(C)[C@@H](O)CC(=O)O2)nn1C (some centres unmarked) [Compound 82]	4.6 ± 0.9	10 ± 1	12 ± 2	78 ± 4	7.5 ± 2	10 ± 2				
C/C(=C\c1csc(N)n1)[C@@H]1C[C@@H]2N(CCO)[C@]2(C)CCC[C@H](C)[C@H](O)[C@@H](C)C(=O)C(C)(C)[C@@H](O)CC(=O)O1 (some centres unmarked) [Compound 83]	13 ± 0.4	330 ± 40	220 ± 30	290 ± 10	3800	280 ± 30				
C/C(=C\c1csc(C)n1)[C@@H]1C[C@@H]2O[C@@H]2CCC[C@H](C)[C@H](O)[C@@H](C)C(=O)C(C)(C)[C@@H](O)CC(=O)O1 [EpoA, epothilone A]	14 ± 3						16 ± 2	10 ± 2	11 ± 2	IC50 (MCF-7; [4]): 14 ± 4 nM; IC50 (MDA-MB-435; [5]): 15 ± 2 nM; IC50 (OVCAR-8; [6]): 20 ± 5 nM; IC50 (NCI/ADR-RES; [8]): 35 ± 5 nM; IC50 (SNB-75; [9]): 14 ± 3 nM
C/C(=C\c1csc(C)n1)[C@@H]1C[C@@H]2O[C@]2(C)CCC[C@H](C)[C@H](O)[C@@H](C)C(=O)C(C)(C)[C@@H](O)CC(=O)O1 [EpoB, epothilone B, reference compound]	[…]						[…]	5.5	[…]	IC50 (MCF-7; [4]): 9.2 ± 2 nM; IC50 (MDA-MB-435; [5]): 5.3 ± 0.7 nM; IC50 (OVCAR-8; [6]): 11 ± 3 nM; IC50 (NCI/ADR-RES; [8]): 19 ± 4 nM; IC50 (SNB-75; [9]): 6.5 ± 2 nM
C/C(=C\c1csc(C)n1)[C@@H]1C/C=C\CCC[C@H](C)[C@H](O)[C@@H](C)C(=O)C(C)(C)[C@@H](O)CC(=O)O1 [EpoC, epothilone C, reference compound]							18	70	110 ± 7	
C/C1=C/C[C@@H](/C(C)=C/c2csc(C)n2)OC(=O)C[C@H](O)C(C)(C)C(=O)[C@H](C)[C@@H](O)[C@@H](C)CCC1 [EpoD, epothilone D, reference compound]							18	14 ± 1	13 ± 4	
C/C(=C\c1csc(C)n1)[C@@H]1C[C@@H]2O[C@]2(C)CCC[C@H](C)[C@H](O)[C@@H](C)C(=O)C(C)(C)[C@@H](O)CC(=O)N1 [Ixab, ixabepilone, reference compound]							4.5 ± 0.7			GI50 (MCF-7; Homo sapiens, MCF7, 96 h): 7 ± 1 nM; GI50 (OVCAR-8; Homo sapiens, OVCAR-8, 96 h): 35 ± 10 nM
CC(=O)O[C@H]1C(=O)[C@@]2(C)[C@H]([C@H](OC(=O)c3ccccc3)[C@]3(O)C[C@H](OC(=O)[C@H](O)[C@@H](NC(=O)c4ccccc4)c4ccccc4)C(C)=C1C3(C)C)[C@]1(OC(C)=O)CO[C@@H]1C[C@@H]2O [PTX, paclitaxel, reference compound]	5 ± 1	7.8 ± 2		10 ± 2						GI50 (MCF-7; Homo sapiens, MCF7, 96 h): 8.5 nM; IC50 (MDA-MB-435; Homo sapiens, MDA-MB-435, IC50, 96 h at 37° C., Table 3): 4 ± 1 nM; GI50 (OVCAR-8; Homo sapiens, OVCAR-8, 96 h): 6.5 ± 2 nM; IC50 (NCI/ADR-RES; Homo sapiens, NCI/ADR-RES (overexpresses P-glycoprotein), IC50, 96 h at 37° C., Table 3): 4200 nM; IC50 (SNB-75; Homo sapiens, SNB-75, IC50, 96 h at 37° C., Table 3): 15 nM
